From publication PMC4809600, “The Influence of Chronic Wound Extracts on Inflammatory Cytokine and Histatin Stability” (PLoS ONE, 2016)
Where no end group is shown, it is not given here.

Tests used:
[1] = Stability in CWE with protease inhibitor cocktail (PIC), capillary zone electrophoresis; type: in vitro ADME, human; conditions: 37°C, CZE, 0 h = 100%; for Percentage intact, CWE + PIC 2h / Percentage intact, CWE + PIC 4h / Percentage intact, CWE + PIC 8h / Percentage intact, CWE + PIC 16h / Percentage intact, CWE + PIC 24h / Percentage intact, CWE + PIC 48h / Percentage intact, CWE + PIC 72h / Percentage intact, CWE + PIC 96h: 1 mg/ml in PBS mixed 1:1 with CWE (1 mg/ml protein, pool of 5 donors) in PBS containing PIC (final 1:140 v/v), ratio to imidazole
Source text: Debridement tissue was obtained from chronic ulcers of 15 patients with therapy resistant (arterio-venous) leg ulcers, according to procedures described earlier. In brief, moist, easily removable debridement material, essentially blood free, was collected from the ulcer surface and divided equally into two different solutions: (i) PBS (B. Braun, Melsungen, Germany), (ii) PBS with protease inhibitor cocktail (PIC) (1:100; v/v) (Sigma-Aldrich, Steinheim, Germany). The mixtures were gently shaken for 1 h at 4°C to elute proteins and centrifuged; the supernatants were stored at -80°C. Total protein content of the supernatant was measured using the BioRad Protein Assay (BioRad Laboratories, Hercules, California, USA) essentially as described by the supplier. Samples were diluted to 1 mg/ml protein and extracts of five different donors were pooled; three different pools of five donors were used in all experiments. The samples are referred to as chronic wound extracts (CWE).
To determine the stability of the different peptides in CWE, histatins and cytokines were dissolved in PBS at 1 mg/ml. Histatins and cytokines were incubated in a 1:1 ratio with (i) PBS, (ii) CWE in PBS, or (iii) CWE in PBS containing PIC, in a total volume of 25 μl. Imidazole (Sigma-Aldrich) was added as an internal standard, with a final concentration of 100 μg/ml. The mixtures were incubated at 37°C, and samples were taken at 0, 24, 48, 72 and 96 h. For histatins containing mixtures, additional samples were taken after 2, 4, 8 and 16 h of incubation.
The samples were analyzed with a BioFocus 2000 capillary zone electrophoresis system (Bio-Rad Laboratories, Hercules, CA, USA) equipped with an uncoated fused-silica capillary of internal diameter 50 μm and a length of 24 cm. Samples were loaded by pressure injection (5 psi/sec). Separation was performed at 10 kV (cathode at the detector side) at 20°C using 0.1 M phosphate buffer (pH 2.5) as electrolyte and monitored continuously at 200 nm. Peaks were quantified with the BioFocus Integrator software. In order to quantify the percentage of intact peptides remaining after incubation with CWE, the ratios of histatins, rhIL-6 or rhCXCL8 to internal standard was set at 100% at 0h, and the ratios at the other incubation time points were related to this.

[2] = Stability in chronic wound extracts (CWE), capillary zone electrophoresis; type: in vitro ADME, human; conditions: 37°C, CZE; for Percentage intact, CWE 2h / Percentage intact, CWE 4h / Percentage intact, CWE 8h / Percentage intact, CWE 16h / Percentage intact, CWE 24h / Percentage intact, CWE 48h / Percentage intact, CWE 72h / Percentage intact, CWE 96h: 1 mg/ml in PBS mixed 1:1 with CWE (1 mg/ml protein, pool of 5 donors) in PBS, UV 200 nm, ratio to imidazole
Method in brief: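 Peptides or cytokines (1 mg/ml stock) mixed 1:1 with PBS or pooled chronic-wound extract (1 mg/ml protein, three pools of five donors), ±protease inhibitor cocktail, at 37 °C for up to 96 h. Analyzed by capillary zone electrophoresis (pH 2.5 phosphate, 200 nm), with peak ratio to imidazole standard relative to 0 h as % intact.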

Percentage intact, CWE + PIC 2h ([1]; experiment 1 of 3): 100%
Percentage intact, CWE + PIC 2h ([1]; experiment 2 of 3): 98.3314%
Percentage intact, CWE + PIC 2h ([1]; experiment 3 of 3): 98.9861%
Percentage intact, CWE + PIC 4h ([1]; experiment 1 of 3): 97.1353%
Percentage intact, CWE + PIC 4h ([1]; experiment 2 of 3): 95.8953%
Percentage intact, CWE + PIC 4h ([1]; experiment 3 of 3): 98.3062%
Percentage intact, CWE + PIC 8h ([1]; experiment 1 of 3): 96.5658%
Percentage intact, CWE + PIC 8h ([1]; experiment 2 of 3): 92.2482%
Percentage intact, CWE + PIC 8h ([1]; experiment 3 of 3): 95.5781%
Percentage intact, CWE + PIC 16h ([1]; experiment 1 of 3): 90.0803%
Percentage intact, CWE + PIC 16h ([1]; experiment 2 of 3): 88.9151%
Percentage intact, CWE + PIC 16h ([1]; experiment 3 of 3): 87.9983%
Percentage intact, CWE + PIC 24h ([1]; 24 h, experiment 1 of 3): 92.5228%
Percentage intact, CWE + PIC 24h ([1]; 24 h, experiment 2 of 3): 84.6363%
Percentage intact, CWE + PIC 24h ([1]; 24 h, experiment 3 of 3): 83.1367%
Percentage intact, CWE + PIC 48h ([1]; experiment 1 of 3): 76.9205%
Percentage intact, CWE + PIC 48h ([1]; experiment 2 of 3): 78.1025%
Percentage intact, CWE + PIC 48h ([1]; experiment 3 of 3): 83.127%
Percentage intact, CWE + PIC 72h ([1]; experiment 1 of 3): 74.0975%
Percentage intact, CWE + PIC 72h ([1]; experiment 2 of 3): 73.8197%
Percentage intact, CWE + PIC 72h ([1]; experiment 3 of 3): 80.0857%
Percentage intact, CWE + PIC 96h ([1]; experiment 1 of 3): 76.9035%
Percentage intact, CWE + PIC 96h ([1]; experiment 2 of 3): 71.7331%
Percentage intact, CWE + PIC 96h ([1]; experiment 3 of 3): 77.8206%
remaining at 24 h, 0.5 mg/ml ([1]; human, with protease inhibitor cocktail (PIC), CWE with protease inhibitor cocktail (final 1:140 v/v), 24 h, mean of 3 independent experiments, read-out: Remaining fraction of intact peptide after 24 h in CWE + PIC): 87%
Percentage intact, CWE 2h ([2]; 0 h = 100%, experiment 1 of 3): 91.7%
Percentage intact, CWE 2h ([2]; 0 h = 100%, experiment 2 of 3): 99.5769%
Percentage intact, CWE 2h ([2]; 0 h = 100%, experiment 3 of 3): 98.2054%
Percentage intact, CWE 4h ([2]; 0 h = 100%, experiment 1 of 3): 84.5%
Percentage intact, CWE 4h ([2]; 0 h = 100%, experiment 2 of 3): 100.271%
Percentage intact, CWE 4h ([2]; 0 h = 100%, experiment 3 of 3): 91.5097%
Percentage intact, CWE 8h ([2]; 8 h, 0 h = 100%, experiment 1 of 3): 75.7%
Percentage intact, CWE 8h ([2]; 8 h, 0 h = 100%, experiment 2 of 3): 86.2011%
Percentage intact, CWE 8h ([2]; 8 h, 0 h = 100%, experiment 3 of 3): 78.6965%
Percentage intact, CWE 16h ([2]; 0 h = 100%, experiment 1 of 3): 69.2%
Percentage intact, CWE 16h ([2]; 0 h = 100%, experiment 2 of 3): 65.943%
Percentage intact, CWE 16h ([2]; 0 h = 100%, experiment 3 of 3): 57.6063%
Percentage intact, CWE 24h ([2]; 24 h, 0 h = 100%, experiment 1 of 3): 42.5808%
Percentage intact, CWE 24h ([2]; 24 h, 0 h = 100%, experiment 2 of 3): 50.836%
Percentage intact, CWE 24h ([2]; 24 h, 0 h = 100%, experiment 3 of 3): 32.6705%
Percentage intact, CWE 48h ([2]; 0 h = 100%, experiment 1 of 3): 12.2019%
Percentage intact, CWE 48h ([2]; 0 h = 100%, experiment 2 of 3): 19.3697%
Percentage intact, CWE 48h ([2]; 0 h = 100%, experiment 3 of 3): 24.0021%
Percentage intact, CWE 72h ([2]; 0 h = 100%, experiment 1 of 3): 1.49%
Percentage intact, CWE 72h ([2]; 0 h = 100%, experiment 2 of 3): 2.89%
Percentage intact, CWE 72h ([2]; 0 h = 100%, experiment 3 of 3): 2.789%
Percentage intact, CWE 96h ([2]; 0 h = 100%, experiment 1 of 3): 0.001%
Percentage intact, CWE 96h ([2]; 0 h = 100%, experiment 2 of 3): 0.001%
Percentage intact, CWE 96h ([2]; 0 h = 100%, experiment 3 of 3): 1.322%
remaining at 8 h, 0.5 mg/ml ([2]; human, chronic wound extracts (CWE), 1 mg/ml in PBS mixed 1:1 with CWE (1 mg/ml protein, pools of 5 donors), 8 h, 0 h = 100%, mean of 3 independent experiments, read-out: Original amount of peptide remaining intact after 8 h in CWE): 80%
remaining at 24 h, 0.5 mg/ml ([2]; human, chronic wound extracts (CWE), 1 mg/ml in PBS mixed 1:1 with CWE (1 mg/ml protein, pools of 5 donors), 24 h, 0 h = 100%, mean of 3 independent experiments, read-out: Original amount of peptide remaining intact after 24 h in CWE): 42%
metabolised at 8 h, 0.5 mg/ml ([2]; human, chronic wound extracts (CWE), incubation with chronic wound extracts, 8 h, read-out: Breakdown (degradation) in CWE in 8 h): ~20%
Sequence: SHREFPFYGDYGS [mad-Hst1]
